# Experimental data: patent US9102622B2 (University of Connecticut, priority 2006, dated 2015)
# Key:
# [1] = biological target: fatty acid amide hydrolase (FAAH) (Rattus norvegicus (Rat), UniProt P97612); assay: FAAH enzyme assay: inhibition of anandamide (AEA) hydrolysis, arachidonic acid quantified by HPLC; type: biochemical; conditions: for IC50 / Ki: eight-point assay; for IC50: anandamide hydrolysis by FAAH, read-out: IC50; for Ki: calculated with Prizm software, read-out: Ki; for inhibition at 100 µM: one-point assay, inhibitor 100 μM, partially purified rat brain FAAH, 15 min, read-out: % Inhibition (Concentration)
# Chain of fatty acid amide hydrolase (FAAH) (P97612 whole entry): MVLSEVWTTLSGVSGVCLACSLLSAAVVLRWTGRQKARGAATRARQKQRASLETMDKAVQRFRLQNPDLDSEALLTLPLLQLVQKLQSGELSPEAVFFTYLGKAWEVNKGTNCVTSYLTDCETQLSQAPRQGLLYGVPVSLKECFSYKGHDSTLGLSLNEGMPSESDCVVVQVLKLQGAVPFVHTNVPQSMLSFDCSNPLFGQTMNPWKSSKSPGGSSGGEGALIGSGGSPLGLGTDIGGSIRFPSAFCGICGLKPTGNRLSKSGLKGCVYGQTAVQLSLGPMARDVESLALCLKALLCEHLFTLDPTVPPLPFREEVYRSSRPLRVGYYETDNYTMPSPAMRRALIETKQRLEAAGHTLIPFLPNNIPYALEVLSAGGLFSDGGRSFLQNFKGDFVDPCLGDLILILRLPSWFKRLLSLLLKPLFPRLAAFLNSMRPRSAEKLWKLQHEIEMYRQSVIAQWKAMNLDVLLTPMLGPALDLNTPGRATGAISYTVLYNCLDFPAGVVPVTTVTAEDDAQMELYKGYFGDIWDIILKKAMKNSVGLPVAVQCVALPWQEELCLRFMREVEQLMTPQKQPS
# Description: The resulting supernatant is injected onto the HPLC.
melting point,IC50 [1],Ki [1],inhibition at 100 µM [1],Structure (SMILES)
61 to 62 °C,760 nM,54 nM,89%,"O=C(CCCCCCOc1ccc(O)cc1)C(F)(F)F [Compound 24.4, 1,1,1-Trifluoro-8-[4-(hydroxy)phenoxy]-2-octanone]"
51 to 52 °C,23900 nM,1600 nM,60%,"O=C(CCCCOc1ccccc1O)C(F)(F)F [Compound 24.9, 1,1,1-Trifluoro-6-[2-(hydroxy)phenoxy]-2-hexanone]"
97 to 99 °C,–,–,56%,"Cc1nnc(C(=O)c2cccc(-c3cccc(OCc4ccccc4)c3)c2)o1 [Compound 78, 1-(3′-Benzyloxy-1,1′-biphenyl-3-yl)-1-(5-methyl-1,3,4-oxadiazol-2-yl)-ketone]"
